Test results: ChEMBL document CHEMBL1201862, “PubChem BioAssay data set” (2004)
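The compound was tested at five concentrations on cells cultured in 96-well plates, with a 48-hour exposure period. GI50: concentration for 50% inhibition of growth.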 Calls of active or inactive are those of the source. Cut-off read from the data, not from the text of the source: active = GI50 up to about 1.1 µM and inactive = higher.

What was measured:
Experiment in all cases: NCI anticancer screen, dose series, 48 h
[1] = system: RXF 631
[2] = system: SNB-78
[3] = system: DLD-1
[4] = system: HOP-18
[5] = system: XF498
[6] = system: M19-MEL
[7] = system: DMS-273
[8] = system: DMS-114
[9] = system: KM-20L2

| SMILES | GI50 [1] | GI50 [2] | GI50 [3] | GI50 [4] | GI50 [5] | GI50 [6] | GI50 [7] | GI50 [8] | GI50 [9] |
| --- | --- | --- | --- | --- | --- | --- | --- | --- | --- |
| COc1ccc(/N=N/c2c(-c3ccccc3)nn(C(=O)CC(=O)Nc3ccc(OC)cc3)c2-c2ccccc2)cc1 | 59.3 µM (inactive) | 34.6 µM (inactive) | > 100 µM (inactive) | 84.3 µM (inactive) | 27 µM (inactive) | > 100 µM (inactive) | > 100 µM (inactive) | 60 µM (inactive) | – |
| C/C=C/C=C\C(=O)C1c2cccc(O)c2C(=O)c2c(O)cc(C)cc21 (centres undefined) | – | 1.65 µM (inactive) | 1.9 µM (inactive) | 1.88 µM (inactive) | 0.232 µM (active) | 0.828 µM (active) | 1.65 µM (inactive) | 0.383 µM (active) | 1.98 µM (inactive) |
| NC(=O)CCC(Nc1c2ccccc2[n+]([O-])c2ccccc12)C(=O)O (centres undefined) | – | > 100 µM (inactive) | 27.8 µM (inactive) | 16 µM (inactive) | – | 77.3 µM (inactive) | 65 µM (inactive) | 37.1 µM (inactive) | > 100 µM (inactive) |
| O=P(NC12CC3CC(CC(C3)C1)C2)(N1CC1)N1CC1 | – | > 100 µM (inactive) | 80.5 µM (inactive) | > 100 µM (inactive) | – | > 100 µM (inactive) | 6.07 µM (inactive) | 50.9 µM (inactive) | > 100 µM (inactive) |
| C/C(=N\NS(=O)(=O)c1c(C)cc(C)cc1C)c1ccc[n+]([O-])n1 | 27.5 µM (inactive) | 14.3 µM (inactive) | 7.16 µM (inactive) | 19.2 µM (inactive) | – | 13.9 µM (inactive) | 16.2 µM (inactive) | 17.3 µM (inactive) | 22.9 µM (inactive) |
| COc1ccc2oc(C(=O)O)c3c2c1CCC3 | – | > 100 µM (inactive) | > 100 µM (inactive) | > 100 µM (inactive) | > 100 µM (inactive) | > 100 µM (inactive) | > 100 µM (inactive) | > 100 µM (inactive) | > 100 µM (inactive) |
| CC(C)(C)[C@H]1CC[C@@](O)(c2ccccc2)CC1.CC(C)(C)[C@H]1CC[C@](O)(c2ccccc2)CC1 | – | 21.8 µM (inactive) | 25.4 µM (inactive) | 37.8 µM (inactive) | < 0.01 µM (active) | 19.4 µM (inactive) | 15.3 µM (inactive) | 21.1 µM (inactive) | 16.1 µM (inactive) |
| CC(Nc1ccc(S(=O)(=O)NC(=N)N)cc1)c1c2ccccc2nc2ccccc12 (centres undefined) | 26 µM (inactive) | – | 18.1 µM (inactive) | – | 15.8 µM (inactive) | 34.4 µM (inactive) | 28.3 µM (inactive) | 31.7 µM (inactive) | 31.8 µM (inactive) |
| C/C(=N\N)C(CN1CCOCC1)C(c1ccccc1)c1c(O)c2ccccc2oc1=O (centres undefined) | – | > 100 µM (inactive) | > 100 µM (inactive) | – | – | > 100 µM (inactive) | > 100 µM (inactive) | > 100 µM (inactive) | > 100 µM (inactive) |
| Cc1nc(-n2nc(-c3ccccc3)cc2-c2ccccc2)sc1C(=O)/C=C/c1ccc([N+](=O)[O-])cc1 | 23 µM (inactive) | 61.9 µM (inactive) | 15.3 µM (inactive) | > 100 µM (inactive) | – | 20.3 µM (inactive) | 20.8 µM (inactive) | – | 33.7 µM (inactive) |
| CC(C)(C)NNc1c([N+](=O)[O-])cnn(-c2ccccc2)c1=O | – | 15.6 µM (inactive) | 4.56 µM (inactive) | 16.7 µM (inactive) | 2.55 µM (inactive) | 2.47 µM (inactive) | 3.2 µM (inactive) | – | 6.44 µM (inactive) |
| COC(=O)CCC(NC(=S)N/N=C/c1cccs1)C(=O)OC (centres undefined) | > 100 µM (inactive) | > 100 µM (inactive) | > 100 µM (inactive) | > 100 µM (inactive) | > 100 µM (inactive) | > 100 µM (inactive) | > 100 µM (inactive) | > 100 µM (inactive) | > 100 µM (inactive) |
| C1=Cc2nc1c(-c1ccccc1)c1ccc([n-]1)c(-c1ccccc1)c1nc(c(-c3ccccc3)c3ccc([n-]3)c2-c2ccccc2)C=C1.[Zn+2] | > 100 µM (inactive) | > 100 µM (inactive) | 70.1 µM (inactive) | – | > 100 µM (inactive) | > 100 µM (inactive) | – | > 100 µM (inactive) | > 100 µM (inactive) |
| CC(C)(C)C1CCN(C(=O)c2ccccc2)CC1 | – | > 100 µM (inactive) | > 100 µM (inactive) | 84.1 µM (inactive) | < 0.01 µM (active) | > 100 µM (inactive) | > 100 µM (inactive) | 28.8 µM (inactive) | > 100 µM (inactive) |
| O=C(O)CCC1c2[nH]c3ccccc3c2CCN1Cc1ccccc1 (centres undefined) | > 100 µM (inactive) | > 100 µM (inactive) | > 100 µM (inactive) | > 100 µM (inactive) | – | > 100 µM (inactive) | > 100 µM (inactive) | > 100 µM (inactive) | > 100 µM (inactive) |
| O=C(O)CCSC(=O)Nc1ccccc1F | – | > 100 µM (inactive) | – | – | – | – | > 100 µM (inactive) | > 100 µM (inactive) | > 100 µM (inactive) |
| Cc1c(C(=O)CC(=O)C(=O)Nc2c(C(C)C)cccc2C(C)C)[n+]([O-])c2ccccc2[n+]1[O-] | 3.3 µM (inactive) | 12.4 µM (inactive) | – | – | 3.05 µM (inactive) | 1.99 µM (inactive) | 3.4 µM (inactive) | 2.59 µM (inactive) | 4.55 µM (inactive) |
| CC(C(=O)c1ccc(Cl)cc1)C1OC(=O)C(Cl)=C1Cl (centres undefined) | > 100 µM (inactive) | – | 21.6 µM (inactive) | 50.4 µM (inactive) | 20.5 µM (inactive) | 23 µM (inactive) | – | 26.2 µM (inactive) | 86.1 µM (inactive) |
| O=C1/C(=C/c2ccccc2)CNC/C1=C\c1ccccc1 | 2.91 µM (inactive) | 10.4 µM (inactive) | 0.329 µM (active) | 11 µM (inactive) | 2.32 µM (inactive) | 1.02 µM (active) | 0.721 µM (active) | 2.11 µM (inactive) | 1.39 µM (inactive) |
| Cc1ccc2oc(=O)cc(CC(=O)O)c2c1 | > 100 µM (inactive) | – | > 100 µM (inactive) | > 100 µM (inactive) | 24.5 µM (inactive) | > 100 µM (inactive) | > 100 µM (inactive) | – | > 100 µM (inactive) |
| CCCCCCCCC1C(C)c2c([nH]c3ccccc23)C2C(=O)N(c3ccccc3)C(=O)C21 (centres undefined) | 3.41 µM (inactive) | 9.62 µM (inactive) | 18.9 µM (inactive) | – | – | 15.7 µM (inactive) | 9.75 µM (inactive) | 10.6 µM (inactive) | 11.2 µM (inactive) |
| CC12OC3(C)OC(=O)C(c4ccccc4)(O1)C3(C)O2 (centres undefined) | > 100 µM (inactive) | > 100 µM (inactive) | > 100 µM (inactive) | > 100 µM (inactive) | – | > 100 µM (inactive) | > 100 µM (inactive) | > 100 µM (inactive) | > 100 µM (inactive) |
| CC12CCC3(OCCO3)C(OC(=O)c3ccccc3)=C1CCC21OCCO1 (centres undefined) | > 100 µM (inactive) | > 100 µM (inactive) | > 100 µM (inactive) | > 100 µM (inactive) | – | > 100 µM (inactive) | > 100 µM (inactive) | > 100 µM (inactive) | > 100 µM (inactive) |
| [O-][S+]1Nc2c(Cl)cc(Cl)c(Cl)c2S1 (centres undefined) | – | > 100 µM (inactive) | 95.7 µM (inactive) | > 100 µM (inactive) | – | > 100 µM (inactive) | > 100 µM (inactive) | 76.2 µM (inactive) | > 100 µM (inactive) |
| O=C1c2ccccc2CC1C1(O)C(=O)Nc2ccccc21 (centres undefined) | > 100 µM (inactive) | > 100 µM (inactive) | > 100 µM (inactive) | – | 55.6 µM (inactive) | > 100 µM (inactive) | > 100 µM (inactive) | > 100 µM (inactive) | > 100 µM (inactive) |
| COCNC(=NC#N)NCOC | > 100 µM (inactive) | – | > 62.8 µM (inactive) | > 100 µM (inactive) | > 100 µM (inactive) | > 59.8 µM (inactive) | > 47.1 µM (inactive) | > 51.8 µM (inactive) | > 76 µM (inactive) |
| O=C(CC(=O)c1cccc([N+](=O)[O-])c1)C(=O)Nc1nc([N+](=O)[O-])cs1 | > 100 µM (inactive) | > 100 µM (inactive) | > 100 µM (inactive) | > 100 µM (inactive) | – | > 100 µM (inactive) | > 100 µM (inactive) | > 100 µM (inactive) | > 100 µM (inactive) |
| O=c1[nH]c2cc([N+](=O)[O-])ccc2nc1/C(=N\NO)C(O)c1ccc([N+](=O)[O-])cc1 (centres undefined) | > 100 µM (inactive) | > 100 µM (inactive) | > 100 µM (inactive) | – | > 100 µM (inactive) | > 100 µM (inactive) | > 100 µM (inactive) | 32.6 µM (inactive) | 32.2 µM (inactive) |
